Assay results taken from ChEMBL document CHEMBL3232938, “Design, synthesis, and biological evaluation of dihydroartemisinin-fluoroquinolone conjugates as a novel type of potential antitubercular agents” (2014).
Values after ≈ are worked out from the molar mass of the structure shown.

What was measured:
Format in all cases: functional
Escherichia coli [1] = assay: Antibacterial activity against Escherichia coli assessed as zone of inhibition at 2 ug/ml; details: read-out: DIZ
[2] = tested on: Mycobacterium tuberculosis; assay: Antibacterial activity against 0.5 ug/ml Mycobacterium tuberculosis H37Rv ATCC 27294 assessed as growth inhibition after 7 days by microtiter plate assay; details: H37Rv ATCC 27294, 168 h
[3] = tested on: Mycobacterium tuberculosis; assay: Antibacterial activity against 1 ug/ml Mycobacterium tuberculosis H37Rv ATCC 27294 assessed as growth inhibition after 7 days by microtiter plate assay; details: H37Rv ATCC 27294, 168 h
Salmonella [4] = assay: Antibacterial activity against Salmonella assessed as zone of inhibition at 2 ug/ml; details: read-out: DIZ
Escherichia coli [5] = assay: Antibacterial activity against duck Escherichia coli assessed as growth inhibition after 7 days by microtiter plate assay; details: 168 h
Escherichia coli [6] = assay: Antibacterial activity against duck Escherichia coli assessed as zone of inhibition at 2 ug/ml; details: read-out: DIZ
Staphylococcus aureus [7] = assay: Antibacterial activity against Staphylococcus aureus assessed as growth inhibition after 7 days by microtiter plate assay; details: 168 h
Salmonella [8] = assay: Antibacterial activity against Salmonella assessed as growth inhibition after 7 days by microtiter plate assay; details: 168 h
Pseudomonas aeruginosa [9] = assay: Antibacterial activity against Pseudomonas aeruginosa assessed as growth inhibition after 7 days by microtiter plate assay; details: 168 h
Pseudomonas aeruginosa [10] = assay: Antibacterial activity against Pseudomonas aeruginosa assessed as zone of inhibition at 2 ug/ml; details: read-out: DIZ
Escherichia coli [11] = assay: Antibacterial activity against Escherichia coli assessed as growth inhibition after 7 days by microtiter plate assay; details: 168 h
Staphylococcus aureus [12] = assay: Antibacterial activity against Staphylococcus aureus assessed as zone of inhibition at 2 ug/ml; details: read-out: DIZ
[13] = tested on: Mycobacterium tuberculosis; assay: Antibacterial activity against drug-sensitive 1 ug/ml Mycobacterium tuberculosis clinical isolate 753 assessed as growth inhibition after 7 days by microtiter plate assay; details: isolate 753, 168 h
[14] = tested on: Mycobacterium tuberculosis; assay: Antibacterial activity against drug-sensitive 1 ug/ml Mycobacterium tuberculosis clinical isolate 758 assessed as growth inhibition after 7 days by microtiter plate assay; details: isolate 758, 168 h
[15] = tested on: Mycobacterium tuberculosis; assay: Antibacterial activity against drug-sensitive 1 ug/ml Mycobacterium tuberculosis clinical isolate 741 assessed as growth inhibition after 7 days by microtiter plate assay; details: isolate 741, 168 h
[16] = tested on: Mycobacterium tuberculosis; assay: Antibacterial activity against drug-sensitive 1 ug/ml Mycobacterium tuberculosis clinical isolate 760 assessed as growth inhibition after 7 days by microtiter plate assay; details: isolate 760, 168 h
[17] = tested on: Mycobacterium tuberculosis; assay: Antibacterial activity against drug-sensitive 1 ug/ml Mycobacterium tuberculosis clinical isolate 821 assessed as growth inhibition after 7 days by microtiter plate assay; details: isolate 821, 168 h

Compound	zone of inhibition at 2 µg/mL (Escherichia coli [1])	MIC [2]	MIC [3]	zone of inhibition at 2 µg/mL (Salmonella [4])	MIC (Escherichia coli [5])	zone of inhibition at 2 µg/mL (Escherichia coli [6])	MIC (Staphylococcus aureus [7])	MIC (Salmonella [8])	MIC (Pseudomonas aeruginosa [9])	zone of inhibition at 2 µg/mL (Pseudomonas aeruginosa [10])	MIC (Escherichia coli [11])	zone of inhibition at 2 µg/mL (Staphylococcus aureus [12])	MIC [13]	MIC [14]	MIC [15]	MIC [16]	MIC [17]
C[C@H]1[C@@H](OC(=O)CCC(=O)N2CCN(c3cc4c(cc3F)c(=O)c(C(=O)O)cn4C3CC3)CC2)O[C@@H]2O[C@@]3(C)CC[C@H]4[C@H](C)CC[C@@H]1[C@@]24OO3	9 mm	2.07 µM (≈ 1.44 µg/mL)	2.07 µM (≈ 1.44 µg/mL)	< 5 mm	16 µg/mL (≈ 22.9 µM)	< 5 mm	16 µg/mL (≈ 22.9 µM)	16 µg/mL (≈ 22.9 µM)	16 µg/mL (≈ 22.9 µM)	< 5 mm	16 µg/mL (≈ 22.9 µM)	< 5 mm	–	–	–	–	–
C[C@H]1[C@@H](OCCN2CCN(c3cc4c(cc3F)c(=O)c(C(=O)O)cn4C3CC3)CC2)O[C@@H]2O[C@@]3(C)CC[C@H]4[C@H](C)CC[C@@H]1[C@@]24OO3	< 5 mm	> 6.23 µM	> 6.23 µM	< 5 mm	8 µg/mL (≈ 12.5 µM)	< 5 mm	8 µg/mL (≈ 12.5 µM)	16 µg/mL (≈ 24.9 µM)	16 µg/mL (≈ 24.9 µM)	< 5 mm	16 µg/mL (≈ 24.9 µM)	< 5 mm	–	–	–	–	–
C[C@H]1[C@@H](OCCNC2CCN(c3c(F)cc4c(=O)c(C(=O)O)cn(C5CC5)c4c3Cl)C2)O[C@@H]2O[C@@]3(C)CC[C@H]4[C@H](C)CC[C@@H]1[C@@]24OO3 (stereo partly specified)	8 mm	0.092 µM (≈ 0.0622 µg/mL)	0.185 µM (≈ 0.125 µg/mL)	12 mm	16 µg/mL (≈ 23.7 µM)	7 mm	16 µg/mL (≈ 23.7 µM)	16 µg/mL (≈ 23.7 µM)	16 µg/mL (≈ 23.7 µM)	< 5 mm	8 µg/mL (≈ 11.8 µM)	< 5 mm	0.125 µg/mL (≈ 0.185 µM)	0.125 µg/mL (≈ 0.185 µM)	0.125 µg/mL (≈ 0.185 µM)	0.125 µg/mL (≈ 0.185 µM)	0.25 µg/mL (≈ 0.37 µM)
C[C@H]1[C@@H](OCCCN2CCN(c3cc4c(cc3F)c(=O)c(C(=O)O)cn4C3CC3)CC2)O[C@@H]2O[C@@]3(C)CC[C@H]4[C@H](C)CC[C@@H]1[C@@]24OO3	< 5 mm	> 3.05 µM	> 3.05 µM	< 5 mm	16 µg/mL (≈ 24.4 µM)	< 5 mm	8 µg/mL (≈ 12.2 µM)	16 µg/mL (≈ 24.4 µM)	16 µg/mL (≈ 24.4 µM)	< 5 mm	16 µg/mL (≈ 24.4 µM)	< 5 mm	–	–	–	–	–
CCn1cc(C(=O)O)c(=O)c2cc(F)c(N3CCN(C(=O)CCC(=O)O[C@H]4O[C@@H]5O[C@@]6(C)CC[C@H]7[C@H](C)CC[C@@H]([C@H]4C)[C@@]57OO6)CC3)cc21	6 mm	> 5.83 µM	> 5.83 µM	< 5 mm	16 µg/mL (≈ 23.3 µM)	< 5 mm	16 µg/mL (≈ 23.3 µM)	16 µg/mL (≈ 23.3 µM)	16 µg/mL (≈ 23.3 µM)	< 5 mm	16 µg/mL (≈ 23.3 µM)	< 5 mm	–	–	–	–	–
C[C@H]1[C@@H](OCCN2CCN(c3cc4c(cc3F)c(=O)c(C(=O)O)cn4-c3ccc(F)cc3)CC2)O[C@@H]2O[C@@]3(C)CC[C@H]4[C@H](C)CC[C@@H]1[C@@]24OO3	< 5 mm	> 2.87 µM	> 2.87 µM	< 5 mm	8 µg/mL (≈ 11.5 µM)	< 5 mm	16 µg/mL (≈ 23 µM)	16 µg/mL (≈ 23 µM)	16 µg/mL (≈ 23 µM)	< 5 mm	16 µg/mL (≈ 23 µM)	< 5 mm	–	–	–	–	–
CC1COc2c(N3CCN(C)CC3)c(F)cc3c(=O)c(C(=O)O)cn1c23 (stereo unspecified) [OFLOXACIN]	–	0.69 µM (≈ 0.249 µg/mL)	0.69 µM (≈ 0.249 µg/mL)	–	–	–	–	–	–	–	–	–	–	–	–	–	–
C[C@H]1[C@@H](OCCCN2CCN(c3cc4c(cc3F)c(=O)c(C(=O)O)cn4-c3ccc(F)cc3)CC2)O[C@@H]2O[C@@]3(C)CC[C@H]4[C@H](C)CC[C@@H]1[C@@]24OO3	< 5 mm	> 5.64 µM	> 5.64 µM	10 mm	4 µg/mL (≈ 5.64 µM)	< 5 mm	16 µg/mL (≈ 22.5 µM)	16 µg/mL (≈ 22.5 µM)	16 µg/mL (≈ 22.5 µM)	< 5 mm	16 µg/mL (≈ 22.5 µM)	< 5 mm	–	–	–	–	–
CCn1cc(C(=O)O)c(=O)c2cc(F)c(N3CCN(CCCO[C@H]4O[C@@H]5O[C@@]6(C)CC[C@H]7[C@H](C)CC[C@@H]([C@H]4C)[C@@]57OO6)CC3)cc21	< 5 mm	6.21 µM (≈ 4 µg/mL)	6.21 µM (≈ 4 µg/mL)	< 5 mm	8 µg/mL (≈ 12.4 µM)	< 5 mm	8 µg/mL (≈ 12.4 µM)	16 µg/mL (≈ 24.9 µM)	16 µg/mL (≈ 24.9 µM)	< 5 mm	16 µg/mL (≈ 24.9 µM)	< 5 mm	–	–	–	–	–
C[C@H]1[C@@H](OC(=O)CCC(=O)N2CCN(c3cc4c(cc3F)c(=O)c(C(=O)O)cn4-c3ccc(F)cc3)CC2)O[C@@H]2O[C@@]3(C)CC[C@H]4[C@H](C)CC[C@@H]1[C@@]24OO3	< 5 mm	> 5.32 µM	> 5.32 µM	< 5 mm	8 µg/mL (≈ 10.6 µM)	< 5 mm	8 µg/mL (≈ 10.6 µM)	16 µg/mL (≈ 21.3 µM)	16 µg/mL (≈ 21.3 µM)	< 5 mm	16 µg/mL (≈ 21.3 µM)	< 5 mm	–	–	–	–	–
C[C@H]1[C@@H](OCCCNC2CCN(c3c(F)cc4c(=O)c(C(=O)O)cn(C5CC5)c4c3Cl)C2)O[C@@H]2O[C@@]3(C)CC[C@H]4[C@H](C)CC[C@@H]1[C@@]24OO3 (stereo partly specified)	7 mm	0.181 µM (≈ 0.125 µg/mL)	0.181 µM (≈ 0.125 µg/mL)	10 mm	8 µg/mL (≈ 11.6 µM)	< 5 mm	16 µg/mL (≈ 23.2 µM)	16 µg/mL (≈ 23.2 µM)	8 µg/mL (≈ 11.6 µM)	< 5 mm	8 µg/mL (≈ 11.6 µM)	< 5 mm	0.125 µg/mL (≈ 0.181 µM)	0.125 µg/mL (≈ 0.181 µM)	0.125 µg/mL (≈ 0.181 µM)	0.125 µg/mL (≈ 0.181 µM)	1 µg/mL (≈ 1.45 µM)
C[C@H]1[C@@H](OC(=O)CCC(=O)NC2CCN(c3c(F)cc4c(=O)c(C(=O)O)cn(C5CC5)c4c3Cl)C2)O[C@@H]2O[C@@]3(C)CC[C@H]4[C@H](C)CC[C@@H]1[C@@]24OO3 (stereo partly specified)	9 mm	1.37 µM (≈ 1 µg/mL)	2.73 µM (≈ 2 µg/mL)	10 mm	16 µg/mL (≈ 21.9 µM)	< 5 mm	8 µg/mL (≈ 10.9 µM)	16 µg/mL (≈ 21.9 µM)	16 µg/mL (≈ 21.9 µM)	< 5 mm	8 µg/mL (≈ 10.9 µM)	< 5 mm	–	–	–	–	–
CCn1cc(C(=O)O)c(=O)c2cc(F)c(N3CCN(CCO[C@H]4O[C@@H]5O[C@@]6(C)CC[C@H]7[C@H](C)CC[C@@H]([C@H]4C)[C@@]57OO6)CC3)cc21	< 5 mm	> 3.18 µM	> 3.18 µM	< 5 mm	16 µg/mL (≈ 25.4 µM)	< 5 mm	8 µg/mL (≈ 12.7 µM)	16 µg/mL (≈ 25.4 µM)	16 µg/mL (≈ 25.4 µM)	< 5 mm	16 µg/mL (≈ 25.4 µM)	< 5 mm	–	–	–	–	–
